Measured values from patent US20220356174A1, “PYRIDIN-2-ONE COMPOUNDS USEFUL AS SMARCA2 ANTAGONISTS” (Epizyme, Inc., priority 2018, published 2022).

What was measured:
FL-SMARCA4 = FL-SMARCA4 (Homo sapiens, UniProt P51532); test: SMARCA4 ATPase activity assay (ADP-Glo, chicken mononucleosome substrate); settings: ATPase assay, enzyme 5 nM, ATP 250 uM, chicken mononucleosome 10 nM, 30 min preincubation
[1] = biological target: T1, FL-SMARCA2 (full-length human SMARCA2 isoform 1) (Homo sapiens, UniProt P51531); test: SMARCA2 ATPase activity assay (ADP-Glo, chicken mononucleosome substrate); format: biochemical; settings: ATPase assay, enzyme 5 nM, ATP 250 uM, chicken mononucleosome 10 nM, 30 min preincubation
T1 construct: FLAG tag (YKDDDDK) (C); made in house; host or cells: Sf21 insect cells (baculovirus, pFastBacI)
T1 sequence (P51531 with tags, fused parts or gaps): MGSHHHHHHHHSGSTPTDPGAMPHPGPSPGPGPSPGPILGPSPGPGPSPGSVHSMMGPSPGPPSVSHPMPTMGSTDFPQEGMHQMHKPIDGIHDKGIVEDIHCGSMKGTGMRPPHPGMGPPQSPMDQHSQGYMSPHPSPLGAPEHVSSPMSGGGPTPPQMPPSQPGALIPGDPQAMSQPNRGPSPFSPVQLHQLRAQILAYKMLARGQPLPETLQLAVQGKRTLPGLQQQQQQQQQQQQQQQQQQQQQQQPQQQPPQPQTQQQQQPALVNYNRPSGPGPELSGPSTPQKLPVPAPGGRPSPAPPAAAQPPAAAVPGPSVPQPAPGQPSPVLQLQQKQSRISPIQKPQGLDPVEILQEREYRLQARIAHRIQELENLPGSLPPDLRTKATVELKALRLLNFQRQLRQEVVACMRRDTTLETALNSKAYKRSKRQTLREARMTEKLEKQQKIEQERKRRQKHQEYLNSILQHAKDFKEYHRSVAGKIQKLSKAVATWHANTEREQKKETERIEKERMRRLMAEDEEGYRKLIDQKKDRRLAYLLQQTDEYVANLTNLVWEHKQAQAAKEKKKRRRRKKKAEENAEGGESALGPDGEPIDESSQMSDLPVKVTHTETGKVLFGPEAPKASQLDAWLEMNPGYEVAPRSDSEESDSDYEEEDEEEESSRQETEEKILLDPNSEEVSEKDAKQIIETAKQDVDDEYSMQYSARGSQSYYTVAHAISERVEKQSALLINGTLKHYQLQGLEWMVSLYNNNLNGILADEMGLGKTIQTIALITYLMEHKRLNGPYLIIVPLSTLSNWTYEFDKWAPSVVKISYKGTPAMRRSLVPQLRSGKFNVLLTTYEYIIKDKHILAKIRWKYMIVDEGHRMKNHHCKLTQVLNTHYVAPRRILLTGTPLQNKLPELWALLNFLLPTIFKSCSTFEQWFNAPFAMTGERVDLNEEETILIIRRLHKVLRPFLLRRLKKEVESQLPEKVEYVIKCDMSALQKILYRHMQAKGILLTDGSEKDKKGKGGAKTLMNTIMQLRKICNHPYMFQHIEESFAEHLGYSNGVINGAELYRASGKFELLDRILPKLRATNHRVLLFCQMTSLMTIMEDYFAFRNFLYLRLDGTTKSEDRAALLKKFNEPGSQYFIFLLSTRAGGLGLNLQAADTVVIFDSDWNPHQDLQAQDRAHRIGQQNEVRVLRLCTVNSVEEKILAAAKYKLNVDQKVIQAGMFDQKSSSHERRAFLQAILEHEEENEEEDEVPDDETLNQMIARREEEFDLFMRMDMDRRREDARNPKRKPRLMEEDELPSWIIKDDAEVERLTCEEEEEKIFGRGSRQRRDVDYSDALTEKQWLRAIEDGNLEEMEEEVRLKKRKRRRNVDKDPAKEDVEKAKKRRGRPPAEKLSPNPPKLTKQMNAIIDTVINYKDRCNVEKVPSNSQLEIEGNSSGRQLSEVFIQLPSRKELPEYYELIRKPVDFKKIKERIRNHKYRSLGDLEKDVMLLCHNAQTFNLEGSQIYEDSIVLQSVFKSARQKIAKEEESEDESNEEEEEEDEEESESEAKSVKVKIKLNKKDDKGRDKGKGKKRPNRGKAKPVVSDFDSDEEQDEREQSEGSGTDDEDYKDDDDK

Sequence of FL-SMARCA4 (P51532 whole entry, canonical isoform): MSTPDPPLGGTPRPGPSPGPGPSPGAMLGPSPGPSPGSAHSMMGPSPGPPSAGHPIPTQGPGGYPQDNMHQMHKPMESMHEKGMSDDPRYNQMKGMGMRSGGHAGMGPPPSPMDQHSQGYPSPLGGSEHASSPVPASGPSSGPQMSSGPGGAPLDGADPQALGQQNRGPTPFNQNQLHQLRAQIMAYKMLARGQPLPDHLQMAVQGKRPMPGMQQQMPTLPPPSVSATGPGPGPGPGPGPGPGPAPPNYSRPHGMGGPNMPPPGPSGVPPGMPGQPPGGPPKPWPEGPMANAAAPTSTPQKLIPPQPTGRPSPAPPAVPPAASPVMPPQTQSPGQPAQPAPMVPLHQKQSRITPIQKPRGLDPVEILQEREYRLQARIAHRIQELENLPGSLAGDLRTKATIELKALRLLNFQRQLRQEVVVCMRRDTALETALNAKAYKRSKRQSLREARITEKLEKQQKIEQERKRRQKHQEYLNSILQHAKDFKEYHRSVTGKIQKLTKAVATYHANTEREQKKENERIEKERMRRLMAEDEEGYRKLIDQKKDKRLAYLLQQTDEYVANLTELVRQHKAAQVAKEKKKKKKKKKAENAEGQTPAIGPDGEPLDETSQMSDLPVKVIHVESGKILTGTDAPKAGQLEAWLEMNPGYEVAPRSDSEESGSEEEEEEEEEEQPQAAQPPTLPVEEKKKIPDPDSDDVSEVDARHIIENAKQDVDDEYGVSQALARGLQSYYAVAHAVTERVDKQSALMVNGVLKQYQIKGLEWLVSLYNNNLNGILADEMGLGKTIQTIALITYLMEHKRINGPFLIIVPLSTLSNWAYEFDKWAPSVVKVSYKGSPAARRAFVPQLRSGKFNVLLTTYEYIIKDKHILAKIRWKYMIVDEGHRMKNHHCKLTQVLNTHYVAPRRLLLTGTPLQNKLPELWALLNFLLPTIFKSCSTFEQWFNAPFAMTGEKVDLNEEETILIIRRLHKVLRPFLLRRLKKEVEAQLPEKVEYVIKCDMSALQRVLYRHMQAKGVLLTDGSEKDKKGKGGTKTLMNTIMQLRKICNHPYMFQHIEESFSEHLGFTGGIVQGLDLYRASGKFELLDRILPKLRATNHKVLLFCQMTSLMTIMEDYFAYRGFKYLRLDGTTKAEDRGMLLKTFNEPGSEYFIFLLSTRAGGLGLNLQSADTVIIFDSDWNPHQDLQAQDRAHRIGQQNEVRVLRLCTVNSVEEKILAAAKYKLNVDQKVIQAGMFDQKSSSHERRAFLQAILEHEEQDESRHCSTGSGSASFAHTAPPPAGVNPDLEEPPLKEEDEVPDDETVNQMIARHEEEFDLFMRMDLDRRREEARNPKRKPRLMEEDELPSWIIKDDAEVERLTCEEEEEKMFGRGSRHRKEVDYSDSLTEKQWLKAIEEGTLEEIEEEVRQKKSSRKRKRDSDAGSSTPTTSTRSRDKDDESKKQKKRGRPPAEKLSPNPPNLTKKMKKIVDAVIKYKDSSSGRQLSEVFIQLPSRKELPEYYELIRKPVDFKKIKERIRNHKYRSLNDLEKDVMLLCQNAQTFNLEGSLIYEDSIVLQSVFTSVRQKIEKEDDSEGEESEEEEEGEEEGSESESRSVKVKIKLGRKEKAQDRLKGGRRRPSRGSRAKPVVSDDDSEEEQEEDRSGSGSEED

Row | SMILES | IC50 (FL-SMARCA4; FL-SMARCA4 IC50, Table 3.2) [µM] | IC50 ([1]; Table 3.1) [µM] | IC50 (FL-SMARCA4; FL-SMARCA4 IC>50, Table 3c.2) [µM] | IC50 ([1]; Table 3c.1) [µM]
1 | CCn1cc(NC(=O)c2cc(Cl)c(Cl)s2)cc(OCCN2CCOCC2)c1=O [Compound 122] | > 50 | > 50 |  | 
2 | CCn1cc(NC(=O)c2cc(Cl)c(Cl)s2)cc(C#N)c1=O [Compound 123] | 11.6 | 1.2 |  | 
3 | CCn1cc(NC(=O)c2cc(Cl)c(Cl)s2)cc(NC)c1=O [Compound 126] | > 50 | 46.8 |  | 
4 | CCn1cc(NC(=O)c2cnc(Cl)s2)cc(F)c1=O [Compound 130] | 0.443 | 0.147 |  | 
5 | N#Cc1sc(C(=O)Nc2ccc(=O)n(CCF)c2)cc1Cl [Compound 132] | 0.3 | 0.142 |  | 
6 | CCn1cc(NC(=O)c2cc(Cl)c(Cl)n2C)cc(Cl)c1=O [Compound 133] | 2.18 | 0.343 |  | 
7 | O=C(Nc1cc(F)c(=O)n(CC(F)F)c1)c1cc(C#Cc2ccnnc2)c(Cl)s1 [Compound 133c] |  |  | 0.0607 | 0.0139
8 | CCn1cc(NC(=O)c2csc(Cl)n2)ccc1=O [Compound 147] | > 50 | 17.1 |  | 
9 | O=C(Nc1cc(F)c(=O)n(CC(F)F)c1)c1cc(C2CC(c3ccncc3)C2)c(Cl)s1 (stereo not drawn) [Compound 152c] |  |  | 37.5 | 4.69
10 | Cn1c(C(=O)Nc2cc(F)c(=O)n(CCF)c2)cc(Cl)c1Cl [Compound 153] | 0.715 | 0.147 |  | 
11 | O=C(Nc1ccc(=O)n(CCF)c1)c1cc(Cl)n[nH]1 [Compound 154] | 8.08 | 1.93 |  | 
12 | O=C(Nc1cc(F)c(=O)n(CCF)c1)c1cc(Cl)n[nH]1 [Compound 155] | 0.529 | 0.163 |  | 
13 | O=C(Nc1cc(Cl)c(=O)n(CCF)c1)c1cc(Cl)n[nH]1 [Compound 156] | 0.884 | 0.235 |  | 
14 | Cn1c(C(=O)Nc2cc(F)c(=O)n(CC(F)(F)F)c2)cc(Cl)c1C#N [Compound 160] | 0.864 | 0.224 |  | 
15 | Cn1c(C(=O)Nc2cc(Cl)c(=O)n(CC(F)(F)F)c2)cc(Cl)c1C#N [Compound 163] | 1.17 | 0.309 |  | 
16 | CCn1cc(NC(=O)c2cc(Cl)c(Cl)n2C)cc(F)c1=O [Compound 164] | 1.34 | 0.311 |  | 
17 | CCn1cc(NC(=O)c2cc(Cl)n[nH]2)cc(F)c1=O [Compound 165] | 1.07 | 0.343 |  | 
18 | O=C(Nc1ccc(=O)n(CC(F)(F)F)c1)c1cc(Cl)c(Cl)[nH]1 [Compound 166] | 16.6 | 2.72 |  | 
19 | CCn1cc(NC(=O)c2cc(OC)c(OC)s2)ccc1=O [Compound 171] | > 50 | > 50 |  | 
20 | CCn1cc(NC(=O)c2cc(Cl)c(C#N)n2C)cc(F)c1=O [Compound 174] | 1.47 | 0.388 |  | 
21 | CNC(=O)c1cccc(N2CC(c3cc(C(=O)Nc4cc(F)c(=O)n(CC(F)F)c4)sc3Cl)C2)c1 [Compound 176c] |  |  | 9.19 | 9.19
22 | CCn1cc(NC(=O)c2cc(OC)c(O)s2)ccc1=O [Compound 179] | > 50 | > 50 |  | 
23 | CCn1cc(NC(=O)c2cc(C#N)c(C#N)s2)ccc1=O [Compound 181] | 0.313 | 0.114 |  | 
24 | CCn1cc(NC(=O)c2cc(Cl)c(Cl)s2)cc(Cc2cnn(C)c2)c1=O [Compound 186] | > 50 | 15.6 |  | 
25 | N#Cc1cc(NC(=O)c2cc(Cl)c(Cl)s2)cn(CCF)c1=O [Compound 193] | 8.93 | 1.23 |  | 
26 | Cn1c(C(=O)Nc2cc(Cl)c(=O)n(CCF)c2)cnc1Cl [Compound 194] | 21.9 | 3.12 |  | 
27 | N#Cc1cc(C(=O)Nc2ccc(=O)n(CC(F)(F)F)c2)sc1Cl [Compound 197] | 0.831 | 0.281 |  | 

Results, then the compound that gave them:

Row | IC50 (FL-SMARCA4; FL-SMARCA4 IC50, Table 3.2) [µM] | IC50 ([1]; Table 3.1) [µM] | IC50 (FL-SMARCA4; FL-SMARCA4 IC>50, Table 3c.2) [µM] | IC50 ([1]; Table 3c.1) [µM] | SMILES
28 | > 50 | > 50 |  |  | CCn1cc(NC(=O)c2cc(Cl)c(Cl)s2)cc(OCCN(C)C)c1=O [Compound 121]
29 | > 50 | > 50 |  |  | CCn1cc(NC(=O)c2cn(C(F)(F)F)c(Cl)n2)ccc1=O [Compound 124]
30 | 0.527 | 0.252 |  |  | N#Cc1sc(C(=O)Nc2ccc(=O)n(CC(F)(F)F)c2)cc1Cl [Compound 127]
31 | 0.631 | 0.148 |  |  | Cn1c(C(=O)Nc2cc(Cl)c(=O)n(CCF)c2)cc(Cl)c1Cl [Compound 134]
32 | 2 | 0.293 |  |  | Cn1c(C(=O)Nc2cc(Cl)c(=O)n(CC(F)(F)F)c2)cc(Cl)c1Cl [Compound 135]
33 |  |  | 35.8 | 39.5 | O=C(Nc1cc(F)c(=O)n(CC(F)F)c1)C1CCC(C(F)(F)F)O1 (stereo not drawn) [Compound 135c]
34 |  |  | 0.558 | 0.3 | O=C(Nc1cc(F)c(=O)n(CC(F)F)c1)c1cc(C#Cc2cccc3c2CNC3=O)c(Cl)s1 [Compound 137c]
35 |  |  | 0.0657 | 0.0288 | O=C(Nc1cc(F)c(=O)n(CC(F)F)c1)c1cc(C#Cc2cccc(CO)c2)c(Cl)s1 [Compound 138c]
36 | > 50 | > 50 |  |  | CCn1cc(NC(=O)c2cc(Cl)c(Cl)s2)cc(N(C)C)c1=O [Compound 149]
37 | 0.616 | 0.166 |  |  | Cn1c(C(=O)Nc2cc(F)c(=O)n(CCF)c2)cc(Cl)c1C#N [Compound 152]
38 | 11.1 | 1.5 |  |  | O=C(Nc1ccc(=O)n(CCF)c1)c1cc(Cl)c(Cl)[nH]1 [Compound 157]
39 | 13.7 | 1.85 |  |  | CCn1cc(NC(=O)c2cc(Cl)c(Cl)[nH]2)cc(Cl)c1=O [Compound 158]
40 | 0.759 | 0.194 |  |  | O=C(Nc1cc(F)c(=O)n(CCF)c1)c1cc(Cl)c(Cl)[nH]1 [Compound 159]
41 | 4.03 | 0.553 |  |  | CCn1cc(NC(=O)c2cc(Cl)c(C#N)n2C)cc(Cl)c1=O [Compound 161]
42 | 0.94 | 0.194 |  |  | Cn1c(C(=O)Nc2cc(Cl)c(=O)n(CCF)c2)cc(Cl)c1C#N [Compound 162]
43 | 2.86 | 0.609 |  |  | CCn1cc(NC(=O)c2cc(Cl)c(Cl)[nH]2)cc(F)c1=O [Compound 167]
44 | 1.41 | 0.375 |  |  | O=C(Nc1cc(F)c(=O)n(CC(F)(F)F)c1)c1cc(Cl)c(Cl)[nH]1 [Compound 169]
45 | 1.07 | 0.238 |  |  | CCn1cc(NC(=O)c2cc(C#N)c(Cl)s2)cc(Cl)c1=O [Compound 172]
46 | 5.6 | 2.04 |  |  | CCn1cc(NC(=O)c2cc(C#N)[nH]n2)ccc1=O [Compound 175]
47 | > 50 | > 50 |  |  | Cc1cc(NC(=O)c2cc(Cl)c(Cl)s2)cn(C)c1=O [Compound 177]
48 | 37.7 | 30.8 |  |  | Cn1cc(NC(=O)c2cc(Cl)c(Cl)s2)cc(Cl)c1=O [Compound 178]
49 | 0.383 | 0.0846 |  |  | CCn1cc(NC(=O)c2cc(C#N)c(Cl)s2)cc(F)c1=O [Compound 180]
50 | > 50 | > 50 |  |  | CCn1cc(NC(=O)c2cnc(C#N)[nH]2)ccc1=O [Compound 183]
51 | > 50 | > 50 |  |  | CCn1cc(NC(=O)c2csc(C(N)=O)n2)ccc1=O [Compound 184]
52 | > 50 | > 50 |  |  | CCc1cc(NC(=O)c2cc(Cl)c(Cl)s2)cn(C)c1=O [Compound 185]
53 | 0.616 | 0.158 |  |  | N#Cc1cc(C(=O)Nc2ccc(=O)n(CCF)c2)sc1Cl [Compound 187]
54 | 29.8 | 7.59 |  |  | Cn1c(C(=O)Nc2cc(Cl)c(=O)n(CC(F)(F)F)c2)cnc1Cl [Compound 195]
